The source of these data is PubChem BioAssay AID1259407 (Chemical Carcinogenesis Research Information System (CCRIS), 2018).

Calls of active or inactive are those of the source. The rule behind the calls is not given here.

The test system of the data set is CCRIS mutagenicity, Ames/micronucleus/aberration tests. The data set can be described thus: CCRIS mutagenicity studies.
Where [1] appears, read: Test System: AMES SALMONELLA TYPHIMURIUM, Strain/Indicator: TA98, Metabolic Activation: NONE, Method: STANDARD PLATE.
The mark [2] stands for this setting: Test System: AMES SALMONELLA TYPHIMURIUM, Strain/Indicator: TA98, Metabolic Activation: RAT, LIVER, S-9, AROCLOR 1254, Method: STANDARD PLATE.
[3] abbreviates: Test System: AMES SALMONELLA TYPHIMURIUM, Strain/Indicator: TA100, Metabolic Activation: NONE, Method: STANDARD PLATE.
[4] abbreviates: Test System: AMES SALMONELLA TYPHIMURIUM, Strain/Indicator: TA100, Metabolic Activation: RAT, LIVER, S-9, AROCLOR 1254, Method: STANDARD PLATE.
Setting [5] is: Test System: UDS RAT HEPATOCYTES, Strain/Indicator: THY INCORP, Metabolic Activation: NONE.

On to `Cc1ccccn1`, for which the mutagenic call was “inactive; negative” (Test System: AMES SALMONELLA TYPHIMURIUM, Strain/Indicator: TA97, Metabolic Activation: NONE, Method: STANDARD PLATE); “inactive; negative” (Test System: AMES SALMONELLA TYPHIMURIUM, Strain/Indicator: TA97, Metabolic Activation: RAT, LIVER, S-9, AROCLOR 1254, Method: STANDARD PLATE); “inactive; negative” (Test System: AMES SALMONELLA TYPHIMURIUM, Strain/Indicator: TA98, Metabolic Activation: NONE, Method: PREINCUBATION); “inactive; negative” under setting [1]; “inactive; negative” (Test System: AMES SALMONELLA TYPHIMURIUM, Strain/Indicator: TA98, Metabolic Activation: RAT LIVER S-9, PHENOBARBITAL AND BETA-NAPHTHOFLAVONE, Method: PREINCUBATION); “inactive; negative” (Test System: AMES SALMONELLA TYPHIMURIUM, Strain/Indicator: TA98, Metabolic Activation: RAT, LIVER, S-9, AROCLOR 1254, Method: PREINCUBATION). Moreover, the mutagenic call is, setting by setting: under setting [2], “inactive; negative”; (Test System: AMES SALMONELLA TYPHIMURIUM, Strain/Indicator: TA100, Metabolic Activation: NONE, Method: PREINCUBATION) “inactive; negative”; under setting [3], “inactive; negative”; (Test System: AMES SALMONELLA TYPHIMURIUM, Strain/Indicator: TA100, Metabolic Activation: RAT LIVER S-9, PHENOBARBITAL AND BETA-NAPHTHOFLAVONE, Method: PREINCUBATION) “inactive; negative”; (Test System: AMES SALMONELLA TYPHIMURIUM, Strain/Indicator: TA100, Metabolic Activation: RAT, LIVER, S-9, AROCLOR 1254, Method: PREINCUBATION) “inactive; negative”; under setting [4], “inactive; negative”. The mutagenic call runs as follows: (Test System: AMES SALMONELLA TYPHIMURIUM, Strain/Indicator: TA102, Metabolic Activation: NONE, Method: PREINCUBATION) “inactive; negative”; (Test System: AMES SALMONELLA TYPHIMURIUM, Strain/Indicator: TA102, Metabolic Activation: NONE, Method: STANDARD PLATE) “inactive; negative”; (Test System: AMES SALMONELLA TYPHIMURIUM, Strain/Indicator: TA102, Metabolic Activation: RAT LIVER S-9, PHENOBARBITAL AND BETA-NAPHTHOFLAVONE, Method: PREINCUBATION) “inactive; negative”; (Test System: AMES SALMONELLA TYPHIMURIUM, Strain/Indicator: TA102, Metabolic Activation: RAT, LIVER, S-9, AROCLOR 1254, Method: PREINCUBATION) “inactive; negative”; (Test System: AMES SALMONELLA TYPHIMURIUM, Strain/Indicator: TA102, Metabolic Activation: RAT, LIVER, S-9, AROCLOR 1254, Method: STANDARD PLATE) “inactive; negative”; (Test System: AMES SALMONELLA TYPHIMURIUM, Strain/Indicator: TA104, Metabolic Activation: NONE, Method: PREINCUBATION) “inactive; negative”. For the same molecule, the mutagenic call is, setting by setting: (Test System: AMES SALMONELLA TYPHIMURIUM, Strain/Indicator: TA104, Metabolic Activation: RAT LIVER S-9, PHENOBARBITAL AND BETA-NAPHTHOFLAVONE, Method: PREINCUBATION) “inactive; negative”; (Test System: AMES SALMONELLA TYPHIMURIUM, Strain/Indicator: TA1535, Metabolic Activation: NONE, Method: PREINCUBATION) “inactive; negative”; (Test System: AMES SALMONELLA TYPHIMURIUM, Strain/Indicator: TA1535, Metabolic Activation: RAT LIVER S-9, PHENOBARBITAL AND BETA-NAPHTHOFLAVONE, Method: PREINCUBATION) “inactive; negative”; (Test System: AMES SALMONELLA TYPHIMURIUM, Strain/Indicator: TA1537, Metabolic Activation: NONE, Method: PREINCUBATION) “inactive; negative”; (Test System: AMES SALMONELLA TYPHIMURIUM, Strain/Indicator: TA1537, Metabolic Activation: RAT LIVER S-9, PHENOBARBITAL AND BETA-NAPHTHOFLAVONE, Method: PREINCUBATION) “inactive; negative”; (Test System: E.COLI, Strain/Indicator: WP2UVRA/PKM101, Metabolic Activation: NONE, Method: PREINCUBATION) “inactive; negative”. Further, the mutagenic call runs as follows: (Test System: E.COLI, Strain/Indicator: WP2UVRA/PKM101, Metabolic Activation: RAT LIVER S-9, PHENOBARBITAL AND BETA-NAPHTHOFLAVONE, Method: PREINCUBATION) “inactive; negative”; (Test System: E.COLI, Strain/Indicator: WP2UVRA, Metabolic Activation: NONE, Method: PREINCUBATION) “inactive; negative”; (Test System: E.COLI, Strain/Indicator: WP2UVRA, Metabolic Activation: RAT LIVER S-9, PHENOBARBITAL AND BETA-NAPHTHOFLAVONE, Method: PREINCUBATION) “inactive; negative”.
In the case of `CCOP(=O)=O.CCOP(=O)=O.CCOP(=O)=O.[Al+3]`, the mutagenic call (End Point: IN VIVO MICRONUCLEUS, Test System: BONE MARROW POLYCHROMATIC ERYTHROCYTES, Species: MOUSE, Strain/Sex: SWISS/MALE, FEMALE, Route: IP 2X IN AQUEOUS SUSPENSION WITHIN 24 HR) is “active; positive”.
Take `O=[N+]([O-])C1CCCCC1`: under setting [5], the mutagenic call was “active; positive”.
As to `C=Cc1ccccn1`, the mutagenic call by setting is: (End Point: In vitro chromosomal aberrations, Test System: Chinese hamster lung (CHL/IU) cells, Metabolic Activation: Rat, Liver, S9, Phenobarbital and 5,6-benzoflavone) “active; positive (structural changes)”; under setting [1], “inactive; negative”; under setting [2], “inactive; negative”; under setting [3], “inactive; negative”; under setting [4], “inactive; negative”; (Test System: AMES SALMONELLA TYPHIMURIUM, Strain/Indicator: TA1535, Metabolic Activation: NONE, Method: STANDARD PLATE) “inactive; negative”. Further, the mutagenic call (Test System: AMES SALMONELLA TYPHIMURIUM, Strain/Indicator: TA1535, Metabolic Activation: RAT, LIVER, S-9, AROCLOR 1254, Method: STANDARD PLATE) is “inactive; negative”; the mutagenic call (Test System: AMES SALMONELLA TYPHIMURIUM, Strain/Indicator: TA1538, Metabolic Activation: NONE, Method: STANDARD PLATE) is “inactive; negative”; the mutagenic call (Test System: AMES SALMONELLA TYPHIMURIUM, Strain/Indicator: TA1538, Metabolic Activation: RAT, LIVER, S-9, AROCLOR 1254, Method: STANDARD PLATE) was “inactive; negative”; the mutagenic call (Test System: Ames Salmonella typhimurium, Strain/Indicator: TA98, Metabolic Activation: None, Method: Preincubation) was “inactive; negative”; the mutagenic call (Test System: Ames Salmonella typhimurium, Strain/Indicator: TA98, Metabolic Activation: Rat, Liver, S9, Sodium phenobarbital and 5,6-benzoflavone (10%), Method: Preincubation) is “inactive; negative”; the mutagenic call (Test System: Ames Salmonella typhimurium, Strain/Indicator: TA100, Metabolic Activation: None, Method: Preincubation) was “inactive; negative”. Also, the mutagenic call by setting is: (Test System: Ames Salmonella typhimurium, Strain/Indicator: TA100, Metabolic Activation: Rat, Liver, S9, Sodium phenobarbital and 5,6-benzoflavone (10%), Method: Preincubation) “inactive; negative”; (Test System: Ames Salmonella typhimurium, Strain/Indicator: TA1535, Metabolic Activation: None, Method: Preincubation) “inactive; negative”; (Test System: Ames Salmonella typhimurium, Strain/Indicator: TA1535, Metabolic Activation: Rat, Liver, S9, Sodium phenobarbital and 5,6-benzoflavone (10%), Method: Preincubation) “inactive; negative”; (Test System: Ames Salmonella typhimurium, Strain/Indicator: TA1537, Metabolic Activation: None, Method: Preincubation) “inactive; negative”; (Test System: Ames Salmonella typhimurium, Strain/Indicator: TA1537, Metabolic Activation: Rat, Liver, S9, Sodium phenobarbital and 5,6-benzoflavone (10%), Method: Preincubation) “inactive; negative”; (Test System: E. coli, Strain/Indicator: WP2uvrA/pKM101, Metabolic Activation: Rat, Liver, S9, Sodium phenobarbital and 5,6-benzoflavone (10%), Method: Preincubation) “active; positive”. The mutagenic call under setting [5] is “inactive; negative”.
